Test results published in patent US20090093374A1, “METHOD OF ARRAYING CELLS AT SINGLE-CELL LEVEL INSIDE MI[…] AND METHOD OF ANALYSING CELLS USING THE SAME, AND CELL ANALYSIS CHIP USED FOR CARRYING OUT THE SAME” (priority 2007, published 2009).

How the values were obtained:
a-type yeast cell [1] = assay: GFP expression of yeast cells arrayed in shallow rectangular microwells, cell solution pre-treated with α-factor (Embodiment 1); assay type: cell-based, Saccharomyces cerevisiae; details: FIG. 14
Description: (§1) For example, to obtain information with regard to a mating of the yeast cell, a pheromone, e.g., so-called α-factor, may be injected into the fluidic channel as the analysis reagent. If an a-type yeast cell is used as the cell, it is preferable that a pheromone of which a sequence is TRP-HIS-TRP-LEU-GLN-LEU-LYS-PRO-GLY-GLN-PRO-MET-TYR, is used as α-factor. In a subsequent operation, when analyzing responses, it is possible to obtain information with regard to whether or not a protein related to the mating is created in a corresponding cell, and the amount of the protein.
(§2) For instance, in the case where the yeast cell is treated with α-factor, it is possible to observe whether or not a protein related to the mating is created and the amount of the protein through the expression intensity of a green fluorescent protein (GFP) with a time. Moreover, in the case where the yeast cell is treated with KCl, it is possible to find out the creation amount of corresponding proteins through a red fluorescent protein (RFP), and also analyze the response of the corresponding yeast cell upon the external stress.
A mixed solution in which a-type yeast cell solution using yeast extract peptone dextrose (YPD) medium had been pre-treated with α-factor, e.g., pheromone having a sequence of TRP-HIS-TRP-LEU-GLN-LEU-LYS-PRO-GLY-GLN-PRO-MET-TYR, was introduced into a fluidic channel through an inlet. The introduced mixed solution filled the fluidic channel through a capillary flow.
After that, the inlet was sealed with a tape so that the mixed solution was evaporated through an outlet. Accordingly, a receding meniscus was generated, allowing the cells to be arrayed in the well structures at a single-cell level. At this time, it took about 10 minutes for the cells to be arrayed while the meniscus was receding.
FIG. 14 is a micrograph showing GFP expression of a yeast cell with respect to α-factor according as a time elapses using the fluidic channel. […]

a-type yeast cell [2] = assay: GFP expression of yeast cells arrayed in deep rectangular microwells, α-factor introduced after arraying and cleaning (Embodiment 2); assay type: cell-based, Saccharomyces cerevisiae; details: FIG. 15
Description: as §1, §2
An a-type yeast cell solution using YPD medium was introduced into a fluidic channel. The introduced cell solution was filled into the fluidic channel through a capillary flow. After that, the inlet was sealed with a tape so that the cell solution was evaporated through an outlet. Accordingly, a receding meniscus was generated, thereby allowing the cells to be arrayed in the well structures at a single-cell level.
Afterwards, a cleaning solution containing amino acid, nitrogen, glucose, etc was introduced through the capillary flow caused by a surface tension, residual cells remaining at a side of the inlet were cleaned. At this time, a tissue paper was placed in the outlet to absorb and remove the residual cells and the cleaning solution.
After the residual cells are completely cleaned, […] was also introduced into the microfluidic channel by the capillary flow caused by the surface tension. […]

[3] = 30 minutes after α-factor treatment
[4] = 60 minutes after α-factor treatment
[5] = 120 minutes after α-factor treatment (versus 60 minutes)

Substance: TRP-HIS-TRP-LEU-GLN-LEU-LYS-PRO-GLY-GLN-PRO-MET-TYR (WHWLQLKPGQPMY; printed: TRP-HIS-TRP-LEU-GLN-LEU-LYS-PRO-GLY-GLN-PRO-MET-TYR) [α-factor, pheromone used as analysis reagent for mating response of a-type yeast cell]
- GFP expression (a-type yeast cell [1]; [3]): cannot be observed yet
- GFP expression (a-type yeast cell [1]; [4]): observed to be bright
- GFP expression intensity (a-type yeast cell [1]; [5]): does not vary
- GFP expression (a-type yeast cell [2]; [3]): cannot be observed yet
- GFP expression (a-type yeast cell [2]; [4]): observed to be bright
- GFP expression intensity (a-type yeast cell [2]; [5]): does not vary
